Patent publication US5622839A (ZymoGenetics, Inc., priority 1995, dated 1997)

Experiments:
[1] = biological target: T1, human calcitonin receptor (Homo sapiens, UniProt P30988); assay: Inositol triphosphate assay in BHK 570 cells expressing pHollex; type: cell-based
T1 construct: Hollex encoded a protein of 474 amino acids; expressed in transfected cells; host or cells: BHK 570 / BHK/KZ10-20-48 (baby hamster kidney) stably transfected with pHollex
T1 sequence (P30988 25-474): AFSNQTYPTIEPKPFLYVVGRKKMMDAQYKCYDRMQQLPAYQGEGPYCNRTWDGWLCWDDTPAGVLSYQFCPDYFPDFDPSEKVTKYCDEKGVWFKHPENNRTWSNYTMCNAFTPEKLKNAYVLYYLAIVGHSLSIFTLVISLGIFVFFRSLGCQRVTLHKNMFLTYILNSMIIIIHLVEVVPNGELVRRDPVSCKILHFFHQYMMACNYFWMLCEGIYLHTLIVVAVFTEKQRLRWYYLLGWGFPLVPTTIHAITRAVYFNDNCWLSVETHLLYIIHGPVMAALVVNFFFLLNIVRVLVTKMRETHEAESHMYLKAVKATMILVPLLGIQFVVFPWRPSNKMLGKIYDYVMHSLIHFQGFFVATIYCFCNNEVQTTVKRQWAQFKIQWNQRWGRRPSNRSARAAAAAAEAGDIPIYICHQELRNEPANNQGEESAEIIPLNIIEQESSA
Protocol: BHK 570 cells expressing the calcitonin receptor from pHollex or mock-transfected BHK 570 cells were plated into 24-well tissue culture dishes at about 200,000 cells per well. After 24 hours, the cells in each well were labeled by incubation in 0.5 ml of Dulbecco's Modified Eagles Medium (DMEM, JRH Biosciences, Lenexa, Kans.) containing 10% fetal calf serum and 4.0 μCi/ml of myo-(2-^3 H) inositol (specific activity=20 Ci/mmol; Amersham). At the end of a 24 hour incubation, the cells were washed with 1 ml prewarmed DMEM that had been buffered with 20 mM Hepes, pH 7.0 (Sigma Chemical Co.) containing 10 mM LiCl. The wash medium was removed by aspiration and replaced with 900 μl of fresh buffered medium. The cells were incubated for five to fifteen minutes at 37° C. After incubation, appropriate concentration of each agonist or antagonist was added to triplicate wells, and the cells were incubated for 30 minutes at 37° C.
The reaction was terminated by placing the cells on ice. Following aspiration of the media, the cells were then lysed by the addition of 1 ml of cold DMEM and 1 ml of ice-cold 10% perchloric acid. After ten minutes the cell lysates were transferred to tubes containing 500 μl of 10 mM EDTA, pH 7.0. […] Ten milliliters of OPTIFLUOR (Packard Instrument Co., Menden, Conn.) were added to each sample, and the samples were counted. […]

bone resorption = conditions: compared with human forms of calcitonin; background; cited from earlier work
[2] = biological target: T1, human calcitonin receptor; assay: Calcitonin competition binding assay with cloned human calcitonin receptor (Hollex1, Hollex2); conditions: for Results (bound 125I calcitonin): 125I calcitonin […] 10^-2 nM
Protocol: Clones Hollex1 and Hollex2 were tested for receptor-mediated ability to bind calcitonin using a competition assay. T47D cells were used as a positive control and BHK cells transfected with Zem1698 were used as a negative control.
The cells were rinsed in binding medium (500 ml RPMI 1640 (Sigma, St. Louis, Mo.), 1 mg/ml bacitracin (Sigma), and 1 mg/ml BSA (Boehringer Mannheim)) to remove the serum. […] The cells were incubated for 1.5 hours at room temperature, and then rinsed 3 times with PBS to remove unincorporated radioactivity. Five hundred microliters of 0.25N NaOH was added to each well to solubilize the cells. The samples were collected from each well and CPMs were counted on a gamma counter.

[3] = biological target: T1, human calcitonin receptor; assay: [Ca2+]i response of BHK cells expressing cloned calcitonin receptor to calcitonin and extracellular calcium (fura-2); type: cell-based; conditions: about 700,000 calcitonin receptors/cell
Protocol: BHK cells expressing the cloned calcitonin receptor were assayed to determine their response to extracellular calcium. Cells were washed three times with a buffer (140 mM NaCl, 5 mM KCl, 0.5 mM MgCl2, 0.5 mM CaCl2 (concentration varied in some experiments), 10 mM glucose, 10 mM HEPES, pH 7.4) made using high purity salts (Aldrich, Milwaukee, Wis.) and sterile water (Baxter, McGaw Park, Ill.). Cells were loaded with fura-2 AM (Molecular Probes Inc.) (10 μg/ml) for 30 minutes essentially as described above, then washed an additional three times. Slides were mounted at room temperature on an inverted microscope (EPIPHOT, Nikon), and a field of cells (typically 20-30 cells) was located using a 40× Nikon fluor objective. The ratio of fura-2 emission at excitation wavelengths of 340 and 380 nm was recorded every 5 seconds. Individual cells were analyzed on a computer workstation (Sun Microsystems) using a software system designed for ratio imaging (Inovision). The concentration of calcium chloride in buffers was determined by comparison to calcium standards on a calcium analyzer (Nova Biomedical Corp. Waltham, Mass.). All experiments were reproduced three to eight times. Fura-2 ratio 340 nm to 380 nm values (R) were converted to [Ca^2+ ]i concentrations after calibration of the instrument using the formula: calcium (nm)=2240[R-0.3)/(20-R)]. Basal [Ca^2+ ]i concentrations were typically 80-150 nm. The peak fura-2 ratios 340/380 of individual cells exposed to 20 nm salmon calcitonin followed by 25 mM calcium chloride were averaged for some experiments and converted to [Ca^2+ ]i concentrations. Standard error was calculated at a 99% level using a Z score of 2.58 (n>30).

In the case of salmon calcitonin, the EC50 ([1]; Hollex1, 30 min at 37° C., read-out: ED50 (inositol phosphate)) is listed as 9.5 nM, the inositol phosphate response ([1]; Hollex2) is listed as “no response” and the “effectiveness in arresting bone resorption” value (bone resorption) is listed as “considerably more effective”. For the same substance, the baseline control ([2]; 200 nM unlabeled salmon calcitonin) was 27 cpm, the Kd ([2]; Hollex1) was 0.5 ± 0.2 nM and the Kd ([2]; Hollex2) was 0.3 ± 0.01 nM. The “Results (bound 125I calcitonin)” value ([2]; unlabeled salmon calcitonin 0.003 nM) was 10430 cpm, the “Results (bound 125I calcitonin)” value ([2]; unlabeled salmon calcitonin 0.01 nM) was 10278 cpm and the “Results (bound 125I calcitonin)” value ([2]; unlabeled salmon calcitonin 0.03 nM) was 10262 cpm. The “Results (bound 125I calcitonin)” value ([2]; unlabeled salmon calcitonin 0.1 nM) was 9711 cpm, the “Results (bound 125I calcitonin)” value ([2]; unlabeled salmon calcitonin 0.3 nM) was 8421 cpm and the “Results (bound 125I calcitonin)” value ([2]; unlabeled salmon calcitonin 1 nM) was 4132 cpm. For the same substance, the “Results (bound 125I calcitonin)” value ([2]; unlabeled salmon calcitonin 3 nM) was 1639 cpm, the “Results (bound 125I calcitonin)” value ([2]; unlabeled salmon calcitonin 10 nM) was 558 cpm and the “Results (bound 125I calcitonin)” value ([2]; unlabeled salmon calcitonin 30 nM) was 458 cpm. The “Results (bound 125I calcitonin)” value ([2]; unlabeled salmon calcitonin 50 nM) was 147 cpm and the “concentration giving maximal transient [Ca2+]i increases” value [3] was 10-20 nm.
